Laboratory results as given in patent US20060188507A1, “Methods for identifying chemotherapeutic resistance in non-hematopoietic tumors” (priority 2005, published 2006).
Like-named read-outs stand apart in the source and are kept apart here.

Legend:
[1] = test system: p16^INK4a protein; assay: p16 induction after short-term adriamycin exposure (modified SITp16), MCF7 cells; type: cell-based, human; settings: 50 nM adriamycin, 36 hour treatment (FIG. 9)
Method: Finally, in a modification of the SITp16, an experiment was performed to determine if p16 expression was induced following a short-term exposure of adriamycin-sensitive cells to adriamycin. For these studies, MCF7 cells were treated 3 days with the EC50 amount of adriamycin (i.e., the effective concentration median or middle of a dose response curve -for MCF7 cells and adriamycin, this is 40 nM. (Note that EC50 is the effective concentration median or middle of a dose response curve, while IC50=inhibitory concentrations by 50%. Total cell lysates (i.e., extracts) were then prepared from these adriamycin-treated cells (called MCF7 EC50 Doxo), as well as from an equal number of MCF7 cells (drug sensitive), MCF7/AR (adriamycin-resistant cells), and OVCAR3 cells (an ovarian cancer cell line from a patient who was treated with adriamycin). The lysates were resolved by SDS-PAGE, transferred to a nitrocellulose membrane, and probed with p16^INK4a specific monoclonal antibody (α-p16^INK4a (Ab-4, Neomarkers clone 16P04, JC2 commercially available from Lab Vision, Freemont, Calif.).
Studies were next performed to determine if a short duration of exposure to adriamycin would cause upregulation of p16 expression in MCF7 cells. […]

[2] = test system: HeLa cells; assay: cells; type: cell-based; settings: Homo sapiens, HeLa, read-out: IC50 Results (MTT)
Method: III. MTT Cytotoxicity Assays. 24 hours post-transfection, siRNA transfected cells were seeded into 96-well plates at 3×10^3 cells/well. The cells were incubated for 16-24 hours. A range of concentrations of the indicated cytotoxic drugs was added and incubation was continued for an additional 48 hours. 20 μL of MTT (10 mg/mL) was added to each well and the plates were further incubated at 37° C. for 4 hours. The dye was solubilized with DMSO and absorbance measured at 570 nm using a multiwell plate reader (WALLAC). The results were expressed as the average of duplicate wells using the plate reader's Prism software (GraphPad).
Using the MTT cytotoxicity assay (as described in Example 3), the IC50 (i.e., the concentration at which 50% of the cells are still viable) of HeLa cells transfected with p16 siRNA for various chemotherapeutic agents was next assessed.

[3] = test system: MCF7 cells; assay: Adriamycin sensitivity of MCF7 cells; settings: for EC50: Homo sapiens
[4] = test system: MDA-MB-231 cells; assay: Adriamycin sensitivity of MDA-MB-231 cells; type: cell-based, human; settings: MDA-MB-231 parental line
Method: The cells are allowed to attach to the plate overnight and then the media is replaced with media containing an different concentrations of ADR (0 nM, 10 nM, 20 nM, 50 nM, 100 nM, 400 nM, 500 nM, 1 μM, 5 μM, and 10 μM) and the cells are then incubated at 37° C. for 4 days. […] The colonies are the counted and the results expressed as the level of ADR resistance in nM (e.g., ≦400 nM), or EC50, in which 50% of the cells were still alive.

IC50 ([2]; HeLa cells transfected with GFP siRNA): 0.113 µM
IC50 ([2]; HeLa cells transfected with P16 siRNA (p16 siRNA I)): 0.0704 µM
EC50 ([3]; MCF7, read-out: EC50 (effective concentration median of dose response curve)): 0.04 µM
SMILES: COc1cccc2c1C(=O)c1c(O)c3c(c(O)c1C2=O)C[C@@](O)(C(=O)CO)C[C@@H]3O[C@H]1C[C@H](N)[C@H](O)[C@H](C)O1 [Doxorubicin, doxorubicin]
upregulation of p16 expression after short exposure [1]: did not result in these cells' upregulation of p16 expression
EC50 ([3]; MCF7, read-out: concentration known to kill 50% of MCF7 drug-sensitive cells): 0.05 µM
ADR concentration to which cell line is sensitive ([3]; MCF7 parental line): approximately 80 nM
ADR concentration to which cell line is sensitive [4]: approximately 200 nM
